Measured values reported in PMC11406516, “The Tuberculosis Drug Candidate SQ109 and Its Analogs Have Multistage Activity against Plasmodium falciparum” (ACS Infectious Diseases, 2024).
Where two headings read alike, the source gives them in different places. Marks after values point to notes of the source that are not given here.

Tests used:
[1] = test system: PfNF54 LGc (stage IV/V gametocytes); test: PrestoBlue late-stage gametocyte viability assay; assay type: cell-based, Plasmodium falciparum; settings: for IC50: Plasmodium falciparum, read-out: PfNF54 LGc IC50
Experimental: Gametocytogenesis was induced on highly synchronized (>95%) asexual ring-stage parasites from PfNF54 at 0.5% parasitemia and 6% hematocrit and thereafter maintained in glucose-deprived media as previously described.[29],[15] After 3 days, the hematocrit was decreased to 4%. Parasites were maintained in complete culture media supplemented with 50 mM N-acetyl-glucosamine 5–10 days post induction to inhibit proliferation of residual asexual blood stages. Gametocyte progression and morphology was also monitored microscopically using Giemsa-stained thin smears.
activity against the sexual stages of P. falciparum was evaluated using the PrestoBlue fluorescence assay as previously described.[4] Activity was measured on PfNF54 stage IV/V gametocytes (2% gametocytemia, 5% hematocrit) previously seeded with compounds (in non-lethal DMSO) for 48 h drug pressure, after which PrestoBlue reagent was added and incubated for 2 h. Fluorescence was detected in the supernatant at 612 nm. Dihydroartemisinin (DHA) was used as a positive drug control.

[2] = HepG2 cytotoxicity, LDH release assay; settings: human, HepG2 cells
Experimental: (§1) Furthermore, compounds were evaluated against late (stage IV/V) gametocytes from PfNF54 (PfNF54 LGc), with viability detected with PrestoBlue,[15] and orthogonally evaluated for toxicity against a human hepatocellular carcinoma line, HepG2.[16]
(§2) Human hepatocellular liver carcinoma cells (HepG2) were cultivated in vitro in Dulbecco’s Modified Eagle’s Medium (DMEM) supplemented with 10% (v/v) heat inactivated fetal bovine serum and 1% (v/v) penicillin/streptomycin.[14] Cells were detached with trypsin treatment at 80% confluency and were seeded in 96-well plates to adhere for 24 h under 5% CO2, humid (95%) conditions. Cells were subsequently exposed to drug pressure for 24 h and cytotoxicity was then determined using the lactate dehydrogenase (LDH) release assay through the colorimetric detection at 450 nm, as previously outlined.[4],[16]

[3] = test system: PfNF54 ABS; test: SYBR Green I proliferation assay, asexual blood stages, drug-sensitive NF54; settings: Plasmodium falciparum, NF54, 96 h, read-out: Pf ABS IC50 NF54
Experimental: (§3) P. falciparum asexual parasites were cultured from drug-sensitive NF54 (PfNF54) and multidrug resistant strains PfK1. Parasites were maintained in human erythrocytes (O+, suspended at 5% hematocrit) in RPMI-1640 culture medium (23.81 mM sodium bicarbonate, 0.024 mg/mL gentamycin, 25 mM HEPES pH 7.5, 0.2% D-glucose, 0.2 mM hypoxanthine and Albumax II) under hypoxic conditions (5% CO2, 5% O2 and 90% N2) with moderate shaking (60 rpm) at 37 °C. Cultures were synchronized to >95% in the ring stage with 5% (w/v) D-sorbitol treatment.[28]
(§4) Activity against the asexual stage of P. falciparum was evaluated using the SYBR Green I-based fluorescence assay as previously described.[4],[16] Cellular proliferation was measured on synchronized in vitro PfNF54 ring-stage parasites (1% parasitemia, 2% hematocrit), following drug pressure for 96 h. Chloroquine was used as the positive drug control for complete inhibition of parasite proliferation.

[4] = test system: PfNF54 ABS; set-up: method as in Stampolaki et al.[5]; settings: drug-sensitive NF54; ref Stampolaki et al.[5]; read-out: Pf ABS IC50 NF54; cited from earlier work
[5] = test system: HepG2 cells; set-up: method as in Stampolaki et al.[5]; settings: compound at 20 μM; ref Stampolaki et al.[5]; cited from earlier work
[6] = test system: male gametes (PfNF54); test: Male gamete exflagellation inhibition assay (EIA); assay type: cell-based; settings: Plasmodium falciparum, 48 h, read-out: male gamete inhibition %
Experimental: The EIA was performed using video microscopy by capturing the movement of exflagellation centers over time as previously described.[4],[30] Mature PfNF54 stage V gametocytes (>95%;) were treated with 2 μM of drug for 48 h before the activation of exflagellation, without removing drug pressure. Movement was semi-automatically quantified from 15 videos of 8–10 s each between 15 and 22.5 min after incubation. Each video was analyzed using ICY-bio image analysis software.

[7] = test system: female gametes; test: Female gamete inhibition assay; assay type: cell-based, Plasmodium falciparum; set-up: concentration or dose not given beside the values
Experimental: Similarly, female gametes were activated as described previously.[31] Monoclonal anti-Pfs antibody conjugated to FITC was used to detect female gametes. Image acquisition was performed using a Zeiss Axio Lab.A1 epifluorescence microscope with a 100/1.4 numerical aperture (NA) oil immersion. Thirty images were captured per sample and analyzed manually.

[8] = test system: oocyst formation; test: Standard membrane feeding assay (SMFA), oocyst formation in Anopheles coluzzii; assay type: in vivo; settings: Plasmodium falciparum
Experimental: Transmission-blocking activity was confirmed in the standard membrane feeding assay (SMFA), by determining transmission-reducing activity (TRA; reduction in oocyst counts) and transmission-blocking activity (TBA, reduction in oocyst prevalence), 8–10 days after feeding female mosquitoes on gametocyte-infected blood, treated with selected compounds (at 2 μM).
SMFA was performed using glass feeders as is outlined.[4],[16] Once again, mature stage V gametocytes (>95%) were treated with 2 μM of each compound for 48 h prior to feeding. Anopheles coluzzii females were allowed to feed on gametocyte cultures (1.5–2.5% gametocytemia, 50% hematocrit in A+ male serum with fresh erythrocytes) in the dark for 40 min. All unfed or partially fed mosquitoes were removed, and remaining females housed for 8–10 days. Mosquitoes were dissected to remove midguts, and oocysts counted under bright field illumination at ×20–×40 magnification. The percentage of block in transmission (transmission-blocking activity; TBA) and the percentage of reduction in the number of oocysts (transmission-reducing activity; TRA) were calculated after normalizing to the control untreated sample.

[9] = test system: HepG2 cells
Experimental: as §1, §2

[10] = test system: HepG2 cells; test: HepG2 cytotoxicity, LDH release assay; settings: Homo sapiens, HepG2, 24 h, read-out: HepG2 EC50
Experimental: as §1, §2

[11] = test system: PfK1; test: SYBR Green I proliferation assay, asexual blood stages, multidrug-resistant K1; settings: Plasmodium falciparum, K1, read-out: Pf ABS IC50 K1
Experimental: as §3, §4

[12] = stage IV/V gametocytes, 48 h drug pressure
[13] = 48 h drug treatment at 2 μM, single biological repeat, read-out: oocyst formation (% inhibition) TBA
[14] = 48 h drug treatment at 2 μM, single biological repeat, read-out: oocyst formation (% inhibition) TRA

| SMILES | IC50 [1, 12] [nM] | viability at 24 h, 20 µM [2] [%] | IC50 [3] [nM] | IC50 [11] [nM] | other results |
| --- | --- | --- | --- | --- | --- |
| CC(C)=CCC/C(C)=C/COCCNC1C2CC3CC(C2)CC1C3 (stereo not shown) [Compound 15] | > 10000 | 100 | 2460 ± 140 | – | – |
| CC(C)=CCC/C(C)=C/CNCCOC1C2CC3CC(C2)CC1C3 (stereo not shown) [Compound 16] | > 10000 | 99 | 3780 ± 750 | – | – |
| CC(C)=CCC/C(C)=C/CNCC(=O)NC1C2CC3CC(C2)CC1C3 (stereo not shown) [Compound 17] | > 10000 | – | – | – | IC50 [4]: 6490 ± 330 nM; HepG2 % viability [5]: 100%^b |
| CC(C)=CCC/C(C)=C/CNC(=O)CNC1C2CC3CC(C2)CC1C3 (stereo not shown) [Compound 18] | – | – | – | – | IC50 ([1]; 48 h): > 10000 nM; HepG2 % viability [5]: 99%^b |
| CC(C)CCCC(C)CCCC(C)CCNCCNC1C2CC3CC(C2)CC1C3 (stereo not shown) [Compound 20] | 540 ± 40 | – | 390 ± 150 | 390 ± 10 | inhibition at 2 µM ([6]; 2 μM): 95 ± 5%; female gamete inhibition % [7]: 77.52 ± 10.85%; inhibition at 2 µM [8, 13]: 54%; inhibition at 2 µM [8, 14]: 75%; cytotoxicity to HepG2 cells (in words) [9]: moderately cytotoxic; EC50 [10]: 5110 ± 850 nM |
| CC(C)=CCC/C(C)=C/CC/C(C)=C/CNCCNC1C2CC3CC(C2)CC1C3 (stereo not shown) [Compound 21] | 510 ± 70 | 75 | 650 | 1820 ± 310 | inhibition at 2 µM [6]: 95.5 ± 4.55%; female gamete inhibition % [7]: 86.30 ± 2.58%; inhibition at 2 µM ([8]; 48 h, read-out: oocyst formation (% inhibition) TBA): 20%; inhibition at 2 µM ([8]; 48 h, read-out: oocyst formation (% inhibition) TRA): 56% |
| c1ccc(CCNCCNC2C3CC4CC(C3)CC2C4)cc1 (stereo not shown) [Compound 22] | 740 ± 150 | 100 | 730 ± 40 | 1700 ± 210 | fold loss in gametocyte activity ([1]; LGc, compared to 1): 7 fold; inhibition at 2 µM ([6]; 2 μM): 92.1 ± 1.21%; female gamete inhibition % [7]: 85.40 ± 7.62%; inhibition at 2 µM [8, 13]: 80%; inhibition at 2 µM [8, 14]: 89%; cytotoxicity to HepG2 cells (in words) [9]: moderately cytotoxic |
| c1ccc(Oc2cccc(CNCCNC3C4CC5CC(C4)CC3C5)c2)cc1 (stereo not shown) [Compound 23] | 1510 ± 420 | – | 960 ± 10 | 4140 ± 1370 | cytotoxicity to HepG2 cells (in words) [9]: moderately cytotoxic; EC50 [10]: 20000 ± 5690 nM |
| C1CCC(CCNCCNC2C3CC4CC(C3)CC2C4)CC1 (stereo not shown) [Compound 24] | > 10000 | 27 | 1240 ± 80 | – | – |
| c1ccc(CNCCNC2C3CC4CC(C3)CC2C4)cc1 (stereo not shown) [Compound 25] | 110 ± 60 | 91 | 3990 ± 280 | – | – |
| CC(C)=CCNCCNC1C2CC3CC(C2)CC1C3 (stereo not shown) [Compound 26] | 370 ± 60 | 99 | 4280 ± 360 | – | – |
